The values below come from patent publication US20110046187A1, “ASSESSING CONGESTIVE HEART RISK IN PATIENTS TREATED OR POTENTIALLY TO BE TREATED WITH A PEROXISOME-PROLIFERATOR-ACTIVATOR-RECEPTOR-GAMMA AGONIST OR A THIAZOLIDINEDIONE” (BG MEDICINE, INC., priority 2007, published 2011).

Where a name gives a salt, the structure may show the parent alone.

Holding throughout (assay type): in vivo
One assay relates to Galectin-3 mRNA. Nature of the assay: Transcriptional profiling (Affymetrix GeneChip) of Galectin-3 mRNA levels in mouse T2DM animal models (db/db and HFD). Also on record: key to Direction & Significance, Galectin-3 mRNA: Significant difference between the Group A and Group B median values for Galectin-3 mRNA; NS: No Significant Difference based on statistical comparison of Galectin-3 mRNA values in Group A and Group B. The following applies: for Direction & Significance, Galectin-3 mRNA / MFC (median fold change) Galectin-3 mRNA: drug/Disease (vehicle), Day 14; for MFC (median fold change) Galectin-3 mRNA: oral twice/day 14 days; for Effect on Gal-3 mRNA levels in adipose tissue, muscle or liver: mouse models of T2DM (text summary of Table 1).

In assay [1] the test system is BNP mRNA. Nature of the assay: Transcriptional profiling (Affymetrix GeneChip) of BNP mRNA levels in mouse T2DM animal models (db/db and HFD). Further details: key to Direction & Significance, BNP mRNA: Significant difference between the Group A and Group B median values for BNP mRNA; NS: No Significant Difference based on statistical comparison of Galectin-3 mRNA values in Group A and Group B. The following applies: drug/Disease (vehicle); for MFC (median fold change) BNP mRNA: oral twice/day 14 days; for Direction & Significance, BNP mRNA: Day 14.

Assay [2] concerns BNP mRNA. Nature of the assay: BNP mRNA level in muscle, Clinical, Rosi/Placebo.
[3] abbreviates: Adipose, HFD-06 high fat diet mouse.
The mark [4] stands for this setting: Liver, HFD-06 high fat diet mouse.
Setting [5] is: Muscle, HFD-06 high fat diet mouse.
The mark [6] stands for this setting: Adipose, HFD-07 high fat diet mouse.
Where [7] appears, read: Liver, HFD-07 high fat diet mouse.
[8] abbreviates: Muscle, HFD-07 high fat diet mouse.

With `COc1ccc(Cl)cc1C(=O)NCCc1ccc(S(=O)(=O)NC(=O)NC2CCCCC2)cc1` [Glyburide, glyburide], the “Direction & Significance, Galectin-3 mRNA” value in the assay on Galectin-3 mRNA (Adipose, DB-07 db/db mouse) is on record as “Increase NS”; in the assay with Galectin-3 mRNA (setting [3]) it was “Increase NS”; in the assay with Galectin-3 mRNA (Liver, DB-07 db/db mouse), “Increase NS”; with Galectin-3 mRNA (setting [4]), “Increase NS”; in the assay on Galectin-3 mRNA (Muscle, DB-07 db/db mouse), “Increase NS”; with Galectin-3 mRNA (setting [5]), “Decrease NS”. Moreover, the “MFC (median fold change) Galectin-3 mRNA” value came out at 1.10 with Galectin-3 mRNA (Adipose, DB-07 db/db mouse); 1.04 with Galectin-3 mRNA (setting [3]); 1.01 against Galectin-3 mRNA (Liver, DB-07 db/db mouse); 1.02 in the assay with Galectin-3 mRNA (setting [4]); 1.19 against Galectin-3 mRNA (Muscle, DB-07 db/db mouse); 0.87 against Galectin-3 mRNA (setting [5]). Besides, the “Effect on Gal-3 mRNA levels in adipose tissue, muscle or liver” value with Galectin-3 mRNA is “Neither glyburide nor metformin treatment of the mouse models of T2DM had any significant effect”. The “MFC (median fold change) BNP mRNA” value was determined as 1.02 against BNP mRNA [1] (Adipose, DB-07 db/db mouse); 1.16 in the assay with BNP mRNA [1] (setting [3]); 0.85 against BNP mRNA [1] (Liver, DB-07 db/db mouse); 0.93 with BNP mRNA [1] (setting [4]); 0.83 against BNP mRNA [1] (Muscle, DB-07 db/db mouse); 3.17 against BNP mRNA [1] (setting [5]). The “Direction & Significance, BNP mRNA” value is recorded as “Increase NS” in the assay on BNP mRNA [1] (Adipose, DB-07 db/db mouse); “Increase NS” in the assay on BNP mRNA [1] (setting [3]); “Decrease NS” with BNP mRNA [1] (Liver, DB-07 db/db mouse); “Decrease NS” in the assay with BNP mRNA [1] (setting [4]); “Decrease NS” with BNP mRNA [1] (Muscle, DB-07 db/db mouse); “Increase NS” in the assay with BNP mRNA [1] (setting [5]).
With `CN(C)C(=N)N=C(N)N` [Metformin, metformin], the “Direction & Significance, Galectin-3 mRNA” value with Galectin-3 mRNA (Adipose, DB-07 db/db mouse) is “Increase NS”; with Galectin-3 mRNA (setting [3]), “Increase NS”; in the assay with Galectin-3 mRNA (Liver, DB-07 db/db mouse), “Increase NS”; in the assay with Galectin-3 mRNA (setting [4]), “Increase NS”; with Galectin-3 mRNA (Muscle, DB-07 db/db mouse) it was “Decrease NS”; in the assay with Galectin-3 mRNA (setting [5]), “Decrease NS”. Further, the “MFC (median fold change) Galectin-3 mRNA” value was 1.10 with Galectin-3 mRNA (Adipose, DB-07 db/db mouse); 1.08 against Galectin-3 mRNA (setting [3]); 1.06 with Galectin-3 mRNA (Liver, DB-07 db/db mouse); 1.08 against Galectin-3 mRNA (setting [4]); 0.90 in the assay with Galectin-3 mRNA (Muscle, DB-07 db/db mouse); 0.82 against Galectin-3 mRNA (setting [5]). Besides, the “Effect on Gal-3 mRNA levels in adipose tissue, muscle or liver” value in the assay on Galectin-3 mRNA is “Neither glyburide nor metformin treatment of the mouse models of T2DM had any significant effect”. Further, the “MFC (median fold change) BNP mRNA” value against BNP mRNA [1] (Adipose, DB-07 db/db mouse) is 0.87; in the assay on BNP mRNA [1] (setting [3]), 0.67; against BNP mRNA [1] (Liver, DB-07 db/db mouse), 0.88; against BNP mRNA [1] (setting [4]) it was 1.03; with BNP mRNA [1] (Muscle, DB-07 db/db mouse), 1.09; against BNP mRNA [1] (setting [5]), 2.17. In addition, the “Direction & Significance, BNP mRNA” value in the assay with BNP mRNA [1] (Adipose, DB-07 db/db mouse) was “Decrease NS”; with BNP mRNA [1] (setting [3]), “Decrease NS”; in the assay on BNP mRNA [1] (Liver, DB-07 db/db mouse) it was “Decrease NS”; in the assay with BNP mRNA [1] (setting [4]) it was “Increase NS”; in the assay on BNP mRNA [1] (Muscle, DB-07 db/db mouse) it was “Increase NS”; with BNP mRNA [1] (setting [5]) it was “Increase NS”.
Consider `CN(CCOc1ccc(CC2SC(=O)NC2=O)cc1)c1ccccn1` (centres unmarked) [Rosi, rosiglitazone maleate], for which the “Direction & Significance, Galectin-3 mRNA” value with Galectin-3 mRNA (Adipose, DB-06 db/db mouse) is reported as “Signif”; with Galectin-3 mRNA (setting [6]), “Signif”; in the assay with Galectin-3 mRNA (Liver, DB-06 db/db mouse) it was “Signif”; in the assay on Galectin-3 mRNA (Muscle, DB-06 db/db mouse), “Signif”. Besides, the “MFC (median fold change) Galectin-3 mRNA” value in the assay with Galectin-3 mRNA (Adipose, DB-06 db/db mouse) is 0.55; with Galectin-3 mRNA (setting [6]) it was 0.64; with Galectin-3 mRNA (Liver, DB-06 db/db mouse), 1.33; with Galectin-3 mRNA (setting [7]), 1.07; against Galectin-3 mRNA (Muscle, DB-06 db/db mouse) it was 0.87; against Galectin-3 mRNA (setting [8]), 0.80. The “MFC (median fold change) BNP mRNA” value in the assay with BNP mRNA [1] (Adipose, DB-06 db/db mouse) came out at 1.13; in the assay with BNP mRNA [1] (setting [6]) it was 1.29; in the assay with BNP mRNA [1] (Liver, DB-06 db/db mouse) it was 1.68; against BNP mRNA [1] (setting [7]), 0.77; against BNP mRNA [1] (Muscle, DB-06 db/db mouse), 0.58; with BNP mRNA [1] (setting [8]), 1.40. The “MFC (median fold change) BNP mRNA” value in the assay on BNP mRNA [2] came to 0.63. In addition, the “Direction & Significance, BNP mRNA” value in the assay on BNP mRNA [1] (setting [6]) is recorded as “Signif”.
